The text below walks through data of patent US20230312643A1, “PEPTIDE DERIVATIVE WITH COLLAGENASE INHIBITORY ACTIVITY, AND USE THEREOF” (SUNMARINE BIOTECH, priority 2020, published 2023).

Series [1] can be described thus: HaCaT cytotoxicity test (MTS cell viability). It is filed as cell-based. The settings on record: human, HaCaT cells (skin epidermal cells). The method, then: HaCaT cells, skin epidermal cells (derived from human), were used. The medium was DMEM low (SH30021.01, HyClone™, Logan, UT, USA) medium containing 10% fetal bovine serum (FBS, Lonza, Valais, Switzerland) medium. The cell lines were cultured in an incubator adjusted to 95% humidity, 5% CO2 and 37° C., and at this time, a medium antibiotic (Penicillin streptomycin, Gibco, Calif., USA) was used to suppress contamination or proliferation of microorganisms. When the cells covered the dish about 80%, the cells were washed with phosphated-buffered saline-EDTA (PBS-EDTA), and then the cells attached to the bottom of the dish were detached by treating with 1 ml of 0.05% trypsin EDTA, and subjected to subculture. The medium was exchanged every 48 hours to culture the cells.
Cell viability was measured using MTS (CellTiter 96® AQueous One Solution Cell Proliferation Assay, Promega, USA) reagent. The cells were divided at a concentration of 1×10^4 cells/well in a 96-well plate and then stabilized for 24 hours in an incubator controlled to 95% humidity, 5% CO2 and 37° C. After that, the samples were treated for each concentration (table 1) and cultured for 24 hours in an incubator controlled to 95% humidity, 5% CO2 and 37° C. After the medium was removed, 9 ml of medium (DMEM low, free FBS) was added to 1 ml of the reagent and diluted, and then 100 ul of the diluted solution was treated per well. After the reaction at 37° C. for 60 minutes, absorbance was measured at 490 nm with microplate reader (Molecular Devices, VersaMax ELISA Microplate Reader, USA). Cell viability was represented by absorbance of a sample-treated group compared to a control group not treated with the sample.

In the next series the target is T1, MMP1 protein (pdb1cgl) (Homo sapiens, UniProt P03956).
T1 sequence (P03956 101-269 limits assumed): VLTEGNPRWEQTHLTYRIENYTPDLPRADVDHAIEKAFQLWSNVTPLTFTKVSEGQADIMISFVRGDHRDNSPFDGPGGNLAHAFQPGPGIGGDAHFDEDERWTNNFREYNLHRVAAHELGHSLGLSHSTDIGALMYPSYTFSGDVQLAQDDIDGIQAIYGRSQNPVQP
Briefly: Molecular docking (SYBYL-X 2.1.1, Surflex-Dock 2.7) of binding affinity to collagenase. The settings on record: from Surflex-Dock total score. The procedure:
Molecular modeling was conducted through a computer simulation program.
Target structure: MMP1 protein (pdb1cgl)
Software: SYBYL-X 2.1.1, Surflex-Dock2.7
Through a computer simulation program, a study was conducted on how to promote collagenase enzyme inhibitory activity and percutaneous absorption during peptide modification.
Total score is a value indicating the degree of binding affinity of a docked structure including a crash and a polar interaction in the unit of pKd, and the larger the value, the higher the binding affinity. And, the similarity is a value comparing the similarity with the structure already bonded to the 1cgl, and means that the closer to 1, the more similar. The result of such docking means that the addition of an appropriate modification residue through a docking simulation of computer chemistry may increase the binding affinity and similarity.
However, when compared with the overall consensus score, a binding affinity similar to or higher than that of pdb1cgl_ligand may be expected, particularly in the modified GPN and PGN, too.

The next series relates to gelatinase. Briefly: Gelatinase inhibitory activity (EnzChek Gelatinase/Collagenase Assay Kit, DQ gelatin). The class given is biochemical. The method, then: Gelatinase is an enzyme which plays a major role in promoting skin aging by more finely degrading collagen fragments digested by MMP-1 with MMP-2, and wrinkle reduction activity was determined by measuring the inhibitory activity of the enzyme.
(§1) Gelatinase inhibitory activity was performed by purchasing EnzChek® Gelatinase/Collagenase Assay Kit (250-2000 Assays) reagent from Invitrogen. First, DQ gelatin stock solution (1 mg/ml) was prepared by adding 1.0 ml of DDW to 1 mg DQ gelatin vial. The 18 ml of DDW was added to 2 ml of 10× reaction buffer, so as to dilute reaction buffer. Then, a gelatinase enzyme reagent was prepared, and diluted with reaction buffer to a final concentration of 0.2 U/ml as working solution. Three samples of 50 ? each were prepared in a 96-well plate. The 30 ? of reaction buffer was added to 20 ? of DQ gelatin and sample blank, and 30 ? of working solution was added to a sample, which were then left in a light-blocked state at room temperature for about one to two hours, and then fluorescence intensity was measured at excitation wavelength 485 nm and 535 nm using ELISA plate reader (VICTOR X3™, PerkinElmer, US).

The test system of another series is collagenase. Briefly: Collagenase inhibitory activity (EnzChek Gelatinase/Collagenase Assay Kit, DQ collagen). It is filed as biochemical. The method, then:
as §1, with “Collagenase inhibitory activity” for “Gelatinase inhibitory activity”, “First, DQ collagen stock solution” for “First, DQ gelatin stock solution”, “mg DQ collagen vial. The” for “mg DQ gelatin vial. The”, “Then, a collagenase enzyme reagent” for “Then, a gelatinase enzyme reagent”, “of DQ collagen and sample” for “of DQ gelatin and sample”, “nm and emission wavelength 535 nm” for “nm and 535 nm”
As a positive control, copper peptide (Comparative Example 12), which is a representative peptide widely used as a raw material for functional cosmetics, was prepared at the same concentration and used. Copper peptide has excellent skin regeneration ability and thus is used as a raw material to suppress skin aging by promoting wound healing, strengthening skin elasticity, and increasing subcutaneous fat layers.

`NC(=O)C[C@H](NC(=O)CNC(=O)[C@@H]1CCCN1)C(=O)O` [PGN, Pro-Gly-Asn, reference compound]: the viability at 24 h, 1 µg/mL in series [1] (1 μg/ml) turned out to be 118 ± 3.1%. In series [1] (10 μg/ml), the viability at 24 h, 10 µg/mL was 129 ± 2.8%. In addition, the viability at 24 h, 50 µg/mL in series [1] (50 μg/ml) is 125 ± 7.6%. In addition, in series [1] (100 μg/ml), the viability at 24 h, 100 µg/mL was 128 ± 4.1%. In addition, the “binding affinity compared to 1cgl ligand” value on MMP1 protein (pdb1cgl) is roughly 61.5%. Moreover, the Gelatinase inhibitory activity with gelatinase (0.2 mg/ml) was 1.5 ± 5.5%; with gelatinase (0.3 mg/ml) it was 9.8 ± 0.8%; in the series with gelatinase (0.4 mg/ml), 63.1 ± 2.1%; with gelatinase (0.5 mg/ml), 80.5 ± 1.2%. The Collagenase inhibitory activity is 1.6 ± 3.3% with collagenase (0.05 mg/ml), 4.7 ± 3.9% with collagenase (0.1 mg/ml), 11.2 ± 6.2% in the series with collagenase (0.5 mg/ml) and 13.1% in the series on collagenase (1 mg/ml). In addition, the “collagenase inhibitory activity IC50” value at collagenase (FIGS. 5 and 6) stood at 1577 µg/mL.
